Results on 47 compounds are retold here after patent US8642609B2, “Modulators of ATP-binding cassette transporters” (Vertex Pharmaceuticals Incorporated, priority 2003, dated 2014).

Structures are written as SMILES.

For this experiment, the target named is T1, ΔF508-CFTR (Homo sapiens, UniProt P13569, DEL508-508).
T1 construct: expressed in transfected cells
Briefly: Membrane potential optical assay (FRET/VIPR), identification of correction compounds. It is filed as cell-based. The following applies: for Emax: relative efficacy. An excerpt:
I) Membrane Potential Optical Methods for Assaying ΔF508-CFTR Modulation Properties of Compounds
The optical membrane potential assay utilized voltage-sensitive FRET sensors described by Gonzalez and Tsien (See, Gonzalez, J. E. and R. Y. Tsien (1995) “Voltage sensing by fluorescence resonance energy transfer in single cells” Biophys J 69(4): 1272-80, and Gonzalez, J. E. and R. Y. Tsien (1997) “Improved indicators of cell membrane potential that use fluorescence resonance energy transfer” Chem Biol 4(4): 269-77) in combination with instrumentation for measuring fluorescence changes such as the Voltage/Ion Probe Reader (VIPR) (See, Gonzalez, J. E., K. Oades, et al. (1999) “Cell-based assays and instrumentation for screening ion-channel targets” Drug Discov Today 4(9): 431-439).
These voltage sensitive assays are based on the change in fluorescence resonant energy transfer (FRET) between the membrane-soluble, voltage-sensitive dye, DiSBAC2(3), and a fluorescent phospholipid, CC2-DMPE, which is attached to the outer leaflet of the plasma membrane and acts as a FRET donor. Changes in membrane potential (Vm) cause the negatively charged DiSBAC2(3) to redistribute across the plasma membrane and the amount of energy transfer from CC2-DMPE changes accordingly. The changes in fluorescence emission were monitored using VIPR™ II, which is an integrated liquid handler and fluorescent detector designed to conduct cell-based screens in 96- or 384-well microtiter plates.
Identification of Correction Compounds
To identify small molecules that correct the trafficking defect associated with ΔF508-CFTR; a single-addition HTS assay format was developed. The cells were incubated in serum-free medium for 16 hrs at 37° C. in the presence or absence (negative control) of test compound. As a positive control, cells plated in 384-well plates were incubated for 16 hrs at 27° C. to “temperature-correct” ΔF508-CFTR. The cells were subsequently rinsed 3× with Krebs Ringers solution and loaded with the voltage-sensitive dyes. To activate ΔF508-CFTR, 10 μM forskolin and the CFTR potentiator, genistein (20 μM), were added along with Cl^−-free medium to each well. The addition of Cl^−-free medium promoted Cl^− efflux in response to ΔF508-CFTR activation and the resulting membrane depolarization was optically monitored using the FRET-based voltage-sensor dyes.
NIH3T3 mouse fibroblasts stably expressing ΔF508-CFTR are used for optical measurements of membrane potential. The cells are maintained at 37° C. in 5% CO2 and 90% humidity in Dulbecco's modified Eagle's medium supplemented with 2 mM glutamine, 10% fetal bovine serum, 1×NEAA, β-ME, 1× pen/strep, and 25 mM HEPES in 175 cm^2 culture flasks. For all optical assays, the cells were seeded at 30,000/well in 384-well matrigel-coated plates and cultured for 2 hrs at 37° C. before culturing at 27° C. for 24 hrs. for the potentiator assay. For the correction assays, the cells are cultured at 27° C. or 37° C. with and without compounds for 16-24 hours B) Electrophysiological Assays for assaying ΔF508-CFTR modulation properties of compounds

T1 sequence (P13569 with tags, fused parts or gaps DEL508-508): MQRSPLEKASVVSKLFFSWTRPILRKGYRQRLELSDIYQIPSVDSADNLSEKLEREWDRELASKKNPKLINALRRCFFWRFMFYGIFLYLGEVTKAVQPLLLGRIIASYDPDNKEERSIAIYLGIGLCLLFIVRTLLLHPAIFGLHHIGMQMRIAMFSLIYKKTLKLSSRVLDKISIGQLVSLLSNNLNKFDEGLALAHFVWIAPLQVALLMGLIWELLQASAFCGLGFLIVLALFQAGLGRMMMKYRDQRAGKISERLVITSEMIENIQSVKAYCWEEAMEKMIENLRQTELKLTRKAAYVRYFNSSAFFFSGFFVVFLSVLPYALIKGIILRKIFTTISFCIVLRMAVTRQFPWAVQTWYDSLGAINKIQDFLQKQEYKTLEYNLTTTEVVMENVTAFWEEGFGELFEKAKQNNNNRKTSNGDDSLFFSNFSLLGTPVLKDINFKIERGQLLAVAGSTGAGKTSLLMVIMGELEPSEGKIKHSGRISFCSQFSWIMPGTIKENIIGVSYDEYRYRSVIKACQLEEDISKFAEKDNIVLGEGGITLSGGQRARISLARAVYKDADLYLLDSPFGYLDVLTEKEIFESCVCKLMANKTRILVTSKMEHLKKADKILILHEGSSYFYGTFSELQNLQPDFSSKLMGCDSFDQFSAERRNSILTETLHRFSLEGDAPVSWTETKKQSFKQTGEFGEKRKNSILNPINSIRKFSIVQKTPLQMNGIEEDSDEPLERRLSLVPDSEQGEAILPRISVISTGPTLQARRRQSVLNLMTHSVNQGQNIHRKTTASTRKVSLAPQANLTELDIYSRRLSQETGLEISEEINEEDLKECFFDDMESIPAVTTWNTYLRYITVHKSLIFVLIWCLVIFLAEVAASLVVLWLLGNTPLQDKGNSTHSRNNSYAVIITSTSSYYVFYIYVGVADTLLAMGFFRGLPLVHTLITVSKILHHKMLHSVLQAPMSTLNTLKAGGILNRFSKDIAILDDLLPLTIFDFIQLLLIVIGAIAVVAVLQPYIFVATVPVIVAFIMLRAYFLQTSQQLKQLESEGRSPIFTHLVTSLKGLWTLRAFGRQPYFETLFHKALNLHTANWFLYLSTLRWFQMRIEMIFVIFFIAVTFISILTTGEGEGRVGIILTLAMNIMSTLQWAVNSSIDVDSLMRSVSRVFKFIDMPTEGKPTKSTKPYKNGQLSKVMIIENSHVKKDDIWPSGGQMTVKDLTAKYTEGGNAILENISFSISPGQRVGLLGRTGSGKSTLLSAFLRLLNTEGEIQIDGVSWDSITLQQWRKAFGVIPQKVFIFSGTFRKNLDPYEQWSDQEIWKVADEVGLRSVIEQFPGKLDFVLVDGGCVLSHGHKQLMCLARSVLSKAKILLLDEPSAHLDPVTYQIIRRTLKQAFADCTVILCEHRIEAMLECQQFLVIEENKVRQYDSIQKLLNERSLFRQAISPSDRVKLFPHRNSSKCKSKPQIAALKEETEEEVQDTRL

Broadly, the EC50 is the concentration that produces a half-maximal response. The Emax is the maximal effect, on the per cent scale that the assay sets. Take `CCCn1c(C(C)N2CCN(C(=O)CSc3ccccc3)CC2)nc2ccccc2c1=O` (stereo not shown) [compound 46]: the EC50 lay in the range of 25 to 60 µM and the Emax was in the range of 25 to 100%.
The matching figures for `CCCn1c(C(C)N2CCN(S(=O)(=O)c3ccc4ccccc4c3)CC2)nc2ccccc2c1=O` (stereo not shown) [compound 47]: < 10 µM and 25 to 100%.
For `Cc1cccc(S(=O)(=O)N2CCN(C(C)c3nc4ccccc4c(=O)n3C)CC2)c1` (stereo not shown) [compound 48], in that order: 25 to 60 µM and 25 to 100%.
For `COc1ccc(S(=O)(=O)N2CCN(C(C)c3nc4ccccc4c(=O)n3C)CC2)cc1OC` (stereo not shown) [compound 49], in that order: 25 to 60 µM and < 25%.
Turning to `CC(c1nc2ccccc2c(=O)n1C)N1CCN(S(=O)(=O)c2ccc(OC(F)(F)F)cc2)CC1` (stereo not shown) [compound 50], the EC50 fell in the range of 10 to 25 µM and the maximal effect (Emax) lay in the range of 25 to 100%.
For `CC(c1nc2ccccc2c(=O)n1C)N1CCN(S(=O)(=O)c2ccc(Br)cc2)CC1` (stereo not shown) [compound 51], in that order: 10 to 25 µM and > 100%.
With `CC(c1nc2ccccc2c(=O)n1C)N1CCN(C(=O)c2ccccc2)CC1` (stereo not shown) [compound 52], the 50% effective concentration (EC50) is 10 to 25 µM and the Emax is < 25%.
For `CC(c1nc2ccccc2c(=O)n1C)N1CCN(C(=O)c2ccc(Cl)cc2)CC1` (stereo not shown) [compound 53], in that order: 25 to 60 µM and 25 to 100%.
For `CC(c1nc2ccccc2c(=O)n1C)N1CCN(C(=O)c2ccc(C(F)(F)F)cc2)CC1` (stereo not shown) [compound 54], in that order: 25 to 60 µM and 25 to 100%.
With `CC(c1nc2ccccc2c(=O)n1C)N1CCN(C(=O)c2ccc(Br)cc2)CC1` (stereo not shown) [compound 55], the EC50 was 10 to 25 µM and the Emax was < 25%.
With `Cc1ccc(NC(=O)N2CCN(C(C)c3nc4ccccc4c(=O)n3C)CC2)cc1` (stereo not shown) [compound 56], the concentration for a half-maximal effect (EC50) fell in the range of 10 to 25 µM and the Emax is < 25%.
Consider `Cc1cccc(C(=O)N2CCN(C(C)c3nc4ccccc4c(=O)n3C)CC2)c1` (stereo not shown) [compound 57], for which the 50% effective concentration (EC50) was 25 to 60 µM and the maximal response (Emax) is < 25%.
For `Cc1ccc(C(=O)N2CCN(C(C)c3cc4ccc(Cl)cc4c(=O)n3C)CC2)cc1` (stereo not shown) [compound 58], in that order: 10 to 25 µM and < 25%.
For `Cc1cccc(C(=O)N2CCN(C(C)c3nc4ccc(Cl)cc4c(=O)n3C)CC2)c1` (stereo not shown) [compound 59], in that order: 25 to 60 µM and 25 to 100%.
Regarding `CC(=O)N1CCN(C(C)c2nc3ccc(Cl)cc3c(=O)n2C)CC1` (stereo not shown) [compound 60], the EC50 lay in the range of 25 to 60 µM and the Emax was < 25%.
In the case of `CC(c1nc2ccccc2c(=O)n1C)N1CCN(S(=O)(=O)c2cccc(Cl)c2)CC1` (stereo not shown) [compound 61], the EC50 fell in the range of 10 to 25 µM and the Emax was 25 to 100%.
Turning to `COc1ccc(S(=O)(=O)N2CCN(C(C)c3nc4ccc(Cl)cc4c(=O)n3C)CC2)cc1` (stereo not shown) [compound 62], the EC50 is < 10 µM and the Emax lay in the range of 25 to 100%.
For `CC(c1nc2ccc(Cl)cc2c(=O)n1C)N1CCN(S(=O)(=O)c2ccccc2Cl)CC1` (stereo not shown) [compound 63], in that order: 10 to 25 µM and < 25%.
`CC(c1nc2ccc(Cl)cc2c(=O)n1C)N1CCN(S(=O)(=O)c2cccc(Cl)c2)CC1` (stereo not shown) [compound 64]: the EC50 lay within 10 to 25 µM and the Emax lay within 25 to 100%.
For the compound `Cn1c(CN2CCN(S(=O)(=O)c3ccccc3)CC2)nc2ccc(Cl)cc2c1=O` [compound 65], the concentration giving a half-maximal response (EC50) was in the range of 10 to 25 µM and the maximal effect (Emax) is < 25%.
As for `Cc1ccc(S(=O)(=O)N2CCN(Cc3nc4ccc(Cl)cc4c(=O)n3C)CC2)cc1` [compound 66], the concentration giving a half-maximal response (EC50) fell in the range of 25 to 60 µM and the Emax was < 25%.
For `Cn1c(CN2CCN(S(=O)(=O)c3ccc(Cl)cc3)CC2)nc2ccc(Cl)cc2c1=O` [compound 67], in that order: 10 to 25 µM and 25 to 100%.
In the case of `CC(c1nc2ccccc2c(=O)n1C)N1CCN(S(=O)(=O)c2ccccc2)CC1` (stereo not shown) [compound 68], the EC50 fell in the range of 25 to 60 µM and the Emax was 25 to 100%.
Take `Cc1ccccc1S(=O)(=O)N1CCN(C(C)c2nc3ccccc3c(=O)n2C)CC1` (stereo not shown) [compound 69]: the 50% effective concentration (EC50) is 25 to 60 µM and the Emax was 25 to 100%.
Take `CC(c1nc2ccccc2c(=O)n1C)N1CCN(S(=O)(=O)c2ccc(C(F)(F)F)cc2)CC1` (stereo not shown) [compound 70]: the EC50 is < 10 µM and the Emax lay within 25 to 100%.
For `CC(c1nc2ccc(Cl)cc2c(=O)n1C)N1CCN(S(=O)(=O)c2ccccc2)CC1` (stereo not shown) [compound 71], in that order: 10 to 25 µM and 25 to 100%.
For the compound `COc1ccc(S(=O)(=O)N2CCN(C(C)c3nc4ccc(Cl)cc4c(=O)n3C)CC2)cc1OC` (stereo not shown) [compound 72], the 50% effective concentration (EC50) is 10 to 25 µM and the Emax fell in the range of 25 to 100%.
For `CC(c1nc2ccc(Cl)cc2c(=O)n1C)N1CCN(S(=O)(=O)c2ccc(C(F)(F)F)cc2)CC1` (stereo not shown) [compound 73], in that order: < 10 µM and 25 to 100%.
With `Cc1ccc(C(=O)N2CCN(C(C)c3nc4ccccc4c(=O)n3C)CC2)cc1` (stereo not shown) [compound 74], the EC50 lay within 10 to 25 µM and the Emax is < 25%.
In the case of `CC(c1nc2ccccc2c(=O)n1C)N1CCN(C(=O)c2cccc(Cl)c2)CC1` (stereo not shown) [compound 75], the EC50 was in the range of 25 to 60 µM and the maximal response (Emax) is < 25%.
Consider `COc1ccc(C(=O)N2CCN(C(C)c3nc4ccccc4c(=O)n3C)CC2)cc1OC` (stereo not shown) [compound 76], for which the concentration giving a half-maximal response (EC50) fell in the range of 10 to 25 µM and the Emax is < 25%.
For `COc1ccc(C(=O)N2CCN(C(C)c3nc4ccc(Cl)cc4c(=O)n3C)CC2)cc1OC` (stereo not shown) [compound 77], in that order: 25 to 60 µM and < 25%.
For `CC(c1nc2ccc(Cl)cc2c(=O)n1C)N1CCN(C(=O)c2ccc(C(F)(F)F)cc2)CC1` (stereo not shown) [compound 78], in that order: 10 to 25 µM and < 25%.
For `CC(c1nc2ccccc2c(=O)n1C)N1CCN(S(C)(=O)=O)CC1` (stereo not shown) [compound 79], in that order: 25 to 60 µM and < 25%.
For `Cc1ccccc1S(=O)(=O)N1CCN(C(C)c2nc3ccc(Cl)cc3c(=O)n2C)CC1` (stereo not shown) [compound 80], the EC50 was 10 to 25 µM and the maximal response (Emax) lay in the range of 25 to 100%.
The matching figures for `COc1ccc(C(=O)N2CCN(C(C)c3nc4ccccc4c(=O)n3C)CC2)cc1` (stereo not shown) [compound 81]: 25 to 60 µM and < 25%.
With `CC(c1nc2ccccc2c(=O)n1C)N1CCN(C(=O)c2ccccc2Cl)CC1` (stereo not shown) [compound 82], the concentration giving a half-maximal response (EC50) lay within 25 to 60 µM and the maximal effect (Emax) was < 25%.
The matching figures for `CC(c1nc2ccc(Cl)cc2c(=O)n1C)N1CCN(C(=O)c2cccc(Cl)c2)CC1` (stereo not shown) [compound 83]: 10 to 25 µM and < 25%.
In the case of `Cn1c(CN2CCN(S(=O)(=O)c3ccc(Br)cc3)CC2)nc2ccc(Cl)cc2c1=O` [compound 84], the 50% effective concentration (EC50) lay within 25 to 60 µM and the Emax was < 25%.
The matching figures for `Cc1cccc(S(=O)(=O)N2CCN(C(C)c3nc4ccc(Cl)cc4c(=O)n3C)CC2)c1` (stereo not shown) [compound 85]: 10 to 25 µM and 25 to 100%.
The matching figures for `CC(c1nc2ccc(Cl)cc2c(=O)n1C)N1CCN(S(=O)(=O)Cc2ccccc2)CC1` (stereo not shown) [compound 86]: 10 to 25 µM and < 25%.
The matching figures for `CCc1nc2ccccc2c(=O)n1C` [compound 87]: 25 to 60 µM and < 25%.
As for `CCc1nc2ccc(Cl)cc2c(=O)n1C` [compound 88], the 50% effective concentration (EC50) was in the range of 25 to 60 µM and the maximal response (Emax) was < 25%.
Turning to `CCCn1c(C(C)OCC)nc2ccccc2c1=O` (stereo not shown) [compound 89], the concentration for a half-maximal effect (EC50) lay within 25 to 60 µM and the maximal response (Emax) is < 25%.
Regarding `CC(c1nc2cc(Cl)ccc2c(=O)n1C)N1CCNCC1` (stereo not shown) [compound 90], the EC50 fell in the range of 25 to 60 µM and the maximal response (Emax) was < 25%.
Consider `CC(c1nc2cc(Cl)ccc2c(=O)n1C)N1CCN(S(=O)(=O)c2ccccc2)CC1` (stereo not shown) [compound 91], for which the EC50 lay in the range of 10 to 25 µM and the maximal effect (Emax) lay in the range of 25 to 100%.
For `Cc1ccc(S(=O)(=O)N2CCN(C(C)c3nc4cc(Cl)ccc4c(=O)n3C)CC2)cc1` (stereo not shown) [compound 92], the concentration for a half-maximal effect (EC50) is < 10 µM and the Emax is > 100%.
